Data on 46 molecules can be found in patent US20060252807A1, “Novel ortho-terphenyl inhibitors of p38 kinase and methods of treating inflammatory disorders” (Kalypsys, Inc., priority 2005, published 2006).

In this assay the target is T1, active p38 alpha enzyme (Upstate Biotechnology) (Homo sapiens, UniProt Q16539).
T1 construct: purchased Upstate Biotechnology
T1 sequence (Q16539 whole entry): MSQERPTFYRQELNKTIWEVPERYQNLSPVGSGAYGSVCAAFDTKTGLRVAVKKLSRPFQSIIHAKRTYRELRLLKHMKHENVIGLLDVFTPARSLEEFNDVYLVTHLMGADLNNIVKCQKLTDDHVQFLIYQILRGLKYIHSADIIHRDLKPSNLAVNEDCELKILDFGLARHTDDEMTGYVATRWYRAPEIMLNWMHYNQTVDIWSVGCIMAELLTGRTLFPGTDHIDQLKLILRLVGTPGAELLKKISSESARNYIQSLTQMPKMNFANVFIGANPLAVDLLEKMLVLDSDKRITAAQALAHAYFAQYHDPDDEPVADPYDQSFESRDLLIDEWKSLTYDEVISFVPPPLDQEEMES
Kind of assay: p38α biochemical assay (ATP turnover, luminescent detection, Cambrex PKlight). As to conditions: p38α biochemical assay, Table 1 Biological Activity. A digest of the protocol: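 In this kinase reaction, p38α used MapkapK2 as phosphorylation substrate at low ATP (1.4 uM final) over 2 hours at 30C, and activity was followed as ATP turnover by luminescence.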
On to `CC(C)NC(=O)c1csc(-c2oc(CNC(=O)c3cc([N+](=O)[O-])ccc3O)nc2-c2ccc(F)cc2)n1` [Example 234], for which the IC50 was ≤ 1000 nM. With `CC(C)NC(=O)c1csc(-c2oc(CNC(=O)c3cc([N+](=O)[O-])ccc3F)nc2-c2ccc(F)cc2)n1` [Example 235], the IC50 was > 1000 nM. In the case of `CC(C)NC(=O)c1csc(-c2oc(CNC(=O)c3cc(F)ccc3[N+](=O)[O-])nc2-c2ccc(F)cc2)n1` [Example 236], the IC50 was ≤ 1000 nM.

As to `CC(C)NC(=O)c1csc(-c2oc(CNC(=O)c3ccc(F)c([N+](=O)[O-])c3)nc2-c2ccc(F)cc2)n1` [Example 237], the IC50 was ≤ 1000 nM. For `COc1ccc(Cl)cc1C(=O)NCc1nc(-c2ccc(F)cc2)c(-c2nc(C(=O)NC(C)C)cs2)o1` [Example 238], the IC50 was > 1000 nM. As to `COc1cc(Cl)ccc1C(=O)NCc1nc(-c2ccc(F)cc2)c(-c2nc(C(=O)NC(C)C)cs2)o1` [Example 239], the IC50 is > 1000 nM.

`CC(C)NC(=O)c1csc(-c2oc(CNC(=O)Cc3ccc(O)c(Cl)c3)nc2-c2ccc(F)cc2)n1` [Example 240]: the IC50 is ≤ 1000 nM. Take `COc1cc(C(=O)NCc2nc(-c3ccc(F)cc3)c(-c3nc(C(=O)NC(C)C)cs3)o2)cc(Cl)n1` [Example 241]: the IC50 was > 1000 nM.

Turning to `CC(C)NC(=O)c1csc(-c2oc(CNC(=O)c3ccc4cc(O)ccc4c3)nc2-c2ccc(F)cc2)n1` [Example 242], the IC50 was ≤ 1000 nM. Take `CC(C)NC(=O)c1csc(-c2oc(CNC(=O)c3c(O)ccc4ccccc34)nc2-c2ccc(F)cc2)n1` [Example 243]: the IC50 is > 1000 nM. The figure for `CC(C)NC(=O)c1csc(-c2oc(CNC(=O)c3cc4ccccc4cc3O)nc2-c2ccc(F)cc2)n1` [Example 244] is > 1000 nM; for `CC(C)NC(=O)c1csc(-c2oc(CNC(=O)c3ccc4ccccc4c3O)nc2-c2ccc(F)cc2)n1` [Example 245] it is > 1000 nM; for `CC(C)NC(=O)c1csc(-c2oc(CNC(=O)c3ccc4cccc(O)c4n3)nc2-c2ccc(F)cc2)n1` [Example 246] it is ≤ 1000 nM. With `CC(C)NC(=O)c1csc(-c2oc(CNC(=O)C(C)NC(=O)OC(C)(C)C)nc2-c2ccc(F)cc2)n1` (stereo not shown) [Example 247], the IC50 is > 1000 nM.

For `CC(C)NC(=O)c1csc(-c2oc(CNC(=O)C(C)NC(=O)OC(C)(C)C)nc2-c2ccc(F)cc2)n1` (stereo not shown) [Example 248], the IC50 was > 1000 nM. Turning to `CC(C)NC(=O)c1csc(-c2oc(CNC(=O)c3ccccc3C(F)(F)F)nc2-c2ccc(F)cc2)n1` [Example 249], the IC50 was ≤ 1000 nM. For the molecule `CC(C)NC(=O)c1csc(-c2oc(CNC(=O)CCc3nc4ccccc4[nH]3)nc2-c2ccc(F)cc2)n1` [Example 250], the IC50 was ≤ 1000 nM. On to `CC(C)NC(=O)c1csc(-c2oc(CNC(=O)c3cccc(Cl)c3Cl)nc2-c2ccc(F)cc2)n1` [Example 251], for which the IC50 was ≤ 1000 nM. `CC(C)NC(=O)c1csc(-c2oc(CNC(=O)c3ccc(Cl)cc3Cl)nc2-c2ccc(F)cc2)n1` [Example 252]: the IC50 was ≤ 1000 nM.

For `CC(C)NC(=O)c1csc(-c2oc(CNC(=O)c3cc(Cl)ccc3Cl)nc2-c2ccc(F)cc2)n1` [Example 253], the IC50 was ≤ 1000 nM. On to `CC(C)NC(=O)c1csc(-c2oc(CNC(=O)c3cc(F)c(F)c(O)c3F)nc2-c2ccc(F)cc2)n1` [Example 254], for which the IC50 is > 1000 nM.

Consider `CC(C)NC(=O)c1csc(-c2oc(CNC(=O)/C=C/c3ccc4c(c3)OCO4)nc2-c2ccc(F)cc2)n1` [Example 255], for which the IC50 is > 1000 nM. Consider `Cc1ccc(C(=O)CCC(=O)NCc2nc(-c3ccc(F)cc3)c(-c3nc(C(=O)NC(C)C)cs3)o2)cc1` [Example 256], for which the IC50 is > 1000 nM. Take `CCCCCc1ccc(C(=O)NCc2nc(-c3ccc(F)cc3)c(-c3nc(C(=O)NC(C)C)cs3)o2)cc1` [Example 257]: the IC50 was > 1000 nM. As for `CC(C)NC(=O)c1csc(-c2oc(CNC(=O)c3cc(F)c(F)cc3Cl)nc2-c2ccc(F)cc2)n1` [Example 258], the IC50 was ≤ 1000 nM.

For `CC(C)NC(=O)c1csc(-c2oc(CNC(=O)c3cc(F)c(Cl)cc3F)nc2-c2ccc(F)cc2)n1` [Example 259], the IC50 is > 1000 nM. Take `CCN(CC)c1ccc(C(=O)NCc2nc(-c3ccc(F)cc3)c(-c3nc(C(=O)NC(C)C)cs3)o2)cc1` [Example 260]: the IC50 was ≤ 1000 nM. For `COc1cc(/C=C/C(=O)NCc2nc(-c3ccc(F)cc3)c(-c3nc(C(=O)NC(C)C)cs3)o2)ccc1O` [Example 261], the IC50 is ≤ 1000 nM. Regarding `COc1ccc(/C=C/C(=O)NCc2nc(-c3ccc(F)cc3)c(-c3nc(C(=O)NC(C)C)cs3)o2)cc1O` [Example 262], the IC50 was ≤ 1000 nM. To `CCCCOc1ccc(C(=O)NCc2nc(-c3ccc(F)cc3)c(-c3nc(C(=O)NC(C)C)cs3)o2)cc1` [Example 263] belongs > 1000 nM; to `CC(C)NC(=O)c1csc(-c2oc(CNC(=O)c3cc4cc(Cl)ccc4o3)nc2-c2ccc(F)cc2)n1` [Example 264], ≤ 1000 nM. The figure for `COc1ccc([N+](=O)[O-])c(C(=O)NCc2nc(-c3ccc(F)cc3)c(-c3nc(C(=O)NC(C)C)cs3)o2)c1` [Example 265] is ≤ 1000 nM.

As for `COc1cc(C(=O)NCc2nc(-c3ccc(F)cc3)c(-c3nc(C(=O)NC(C)C)cs3)o2)cc(OC)c1O` [Example 266], the IC50 was ≤ 1000 nM. With `CC(C)NC(=O)c1csc(-c2oc(CNC(=O)c3ccccc3-c3ccccc3)nc2-c2ccc(F)cc2)n1` [Example 267], the IC50 is > 1000 nM. For `CC(C)NC(=O)c1csc(-c2oc(CNC(=O)c3cccc(Br)c3)nc2-c2ccc(F)cc2)n1` [Example 268], the IC50 was > 1000 nM. As to `CC(C)NC(=O)c1csc(-c2oc(CNC(=O)c3ccc(Br)cc3)nc2-c2ccc(F)cc2)n1` [Example 269], the IC50 was > 1000 nM.

As to `CC(C)NC(=O)c1csc(-c2oc(CNC(=O)c3cccc(Cl)c3[N+](=O)[O-])nc2-c2ccc(F)cc2)n1` [Example 270], the IC50 is ≤ 1000 nM. The figure for `CC(C)NC(=O)c1csc(-c2oc(CNC(=O)c3cc([N+](=O)[O-])ccc3Cl)nc2-c2ccc(F)cc2)n1` [Example 271] is ≤ 1000 nM. The figure for `CC(C)NC(=O)c1csc(-c2oc(CNC(=O)c3ccc([N+](=O)[O-])cc3Cl)nc2-c2ccc(F)cc2)n1` [Example 272] is ≤ 1000 nM; for `CC(C)NC(=O)c1csc(-c2oc(CNC(=O)c3ccc(Cl)cc3[N+](=O)[O-])nc2-c2ccc(F)cc2)n1` [Example 273] it is ≤ 1000 nM.

Turning to `CC(C)NC(=O)c1csc(-c2oc(CNC(=O)c3ccc(Cl)c([N+](=O)[O-])c3)nc2-c2ccc(F)cc2)n1` [Example 274], the IC50 is > 1000 nM.

In the case of `CC(C)NC(=O)c1csc(-c2oc(CNC(=O)c3cc(Cl)ccc3[N+](=O)[O-])nc2-c2ccc(F)cc2)n1` [Example 275], the IC50 is ≤ 1000 nM. Take `CC(C)NC(=O)c1csc(-c2oc(CNC(=O)c3cccc(Br)n3)nc2-c2ccc(F)cc2)n1` [Example 276]: the IC50 is > 1000 nM. For `CC(C)NC(=O)c1csc(-c2oc(CNC(=O)c3cncc(Br)c3)nc2-c2ccc(F)cc2)n1` [Example 277], the IC50 is ≤ 1000 nM. On to `CC(C)NC(=O)c1csc(-c2oc(CNC(=O)c3cc(F)c(F)cc3[N+](=O)[O-])nc2-c2ccc(F)cc2)n1` [Example 278], for which the IC50 was ≤ 1000 nM. For `CC(C)NC(=O)c1csc(-c2oc(CNC(=O)Cc3ccc(C(F)(F)F)cc3)nc2-c2ccc(F)cc2)n1` [Example 279], the IC50 is > 1000 nM.

A word on the IC50: it is the concentration needed to halve the response being measured. Lower therefore signals greater potency.
